Eleven compounds from patent US20250197420A1, “MACROCYCLIC COMPOUNDS, COMPOSITIONS, AND METHODS OF USING THEREOF” (Sionna Therapeutics Inc., priority 2022, published 2025) can be followed below.

In experiment [1] the target is T1, Purified recombinant NBD1 (Homo sapiens, UniProt P13569).
T1 construct: Purified recombinant NBD1 was produced using previously described methods; made in house
Description: Aggregation analysis using differential static light scattering (DSLS): thermal stability of NBD1. The class given is binding. Conditions: NBD1 0.2 mg/ml; Tagg of compound well minus average Tagg of DMSO control wells. The essentials: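 ΔTagg is compound-well aggregation temperature minus the DMSO-control mean, each Tagg being the inflection point of light scattering measured by DSLS during a 1 °C/min ramp up to 70 °C. The protein was purified NBD1 (0.2 mg/ml) in pH 7.6 buffer containing 2 mM ATP, 5 mM MgCl2 and 1% glycerol.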

The test system of experiment [2] is Primary human bronchial epithelial cells from a ΔF508 homozygous CF donor (CF-HBE cells). Kind of experiment: TECC24 recording of CFTR-mediated transepithelial chloride transport, AUC fold over benchmark VX-809 @10 μM. The class given is cell-based. As to conditions: 48 hours incubation, AUC of forskolin-stimulated IEQ. A digest of the protocol:
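Values are the forskolin-to-inhibitor-172 AUC of equivalent Cl− current, derived from transepithelial voltage and resistance, divided by the VX-809 AUC and binned as A <3, B 3–6, C 6–20. Cells were pre-incubated with compound for 48 h at 36.5 °C; the bath (pH 7.4) received benzamil 10 μM, forskolin 10 μM, then CFTRinh-172 20 μM.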

T1 sequence (P13569 423-646 limits assumed): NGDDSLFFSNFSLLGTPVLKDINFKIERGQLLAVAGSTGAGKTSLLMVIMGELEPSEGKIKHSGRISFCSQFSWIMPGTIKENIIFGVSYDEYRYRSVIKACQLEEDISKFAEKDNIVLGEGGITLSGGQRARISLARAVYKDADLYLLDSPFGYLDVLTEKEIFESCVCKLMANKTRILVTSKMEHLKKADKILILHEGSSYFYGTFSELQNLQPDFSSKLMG

As to `CON(C)C(=O)CCc1cccc(C2(C)CCCC(C)(C)CN(C)C(=O)CCc3c(c(F)cc4[nH]ccc34)Oc3ccc(F)c(c3)-c3ncc2[nH]3)c1` (single isomer, unassigned) [Compound 60A, 3-[3-(23,29-difluoro-6,10,10,12-tetramethyl-13-oxo-25-oxa-3,12,20,31-tetrazapentacyclo-[24.3.1.12,5.016,24.017,21]hentriaconta-1(30),2,4,16,18,21,23,26,28-nonaen-6-yl)phenyl]-N-methoxy-N-methyl-propanamide], the “DSLS (ΔTagg)” value in experiment [1] is “A (an ΔTagg value less than or equal to 5 °C is marked “A”)”. Also, the “TECC (test agent AUC divided by VX-809 AUC)” value in experiment [2] was “A (a TECC value less than 3 is marked “A”)”.
`CN1CC(C)(C)CCCC(C)(c2cccc(CCC(=O)O)c2)c2cnc([nH]2)-c2cc(ccc2F)Oc2c(F)cc3[nH]cnc3c2CCC1=O` (single isomer, unassigned) [Compound 72B, 3-[3-(23,29-difluoro-6,10,10,12-tetramethyl-13-oxo-25-oxa-3,12,18,20,31-pentazapentacyclo-[24.3.1.12,5.016,24.017,21]hentriaconta-1(30),2,4,16,18,21,23,26,28-nonaen-6-yl)phenyl]propanoic acid]: in experiment [1], the “DSLS (ΔTagg)” value is “B (a value above 5 °C and less than or equal to 10 °C is marked “B”)”. Besides, the “TECC (test agent AUC divided by VX-809 AUC)” value in experiment [2] is given as “A (a TECC value less than 3 is marked “A”)”.
As for `CN1CC(C)(C)CCCC(c2cccc(CCC(=O)O)c2)n2ccc(n2)-c2cc(ccc2F)Oc2c(F)cc3[nH]ccc3c2CCC1=O` (stereo not shown) [Compound 38, 3-[3-(23,29-difluoro-10,10,12-trimethyl-13-oxo-25-oxa-5,12,20,31-tetrazapentacyclo[24.3.1.12,5.016,24.017,21]hentriaconta-1(30),2(31),3,16,18,21,23,26,28-nonaen-6-yl)phenyl]propanoic acid], the “DSLS (ΔTagg)” value in experiment [1] was “A (an ΔTagg value less than or equal to 5 °C is marked “A”)”. In addition, the “TECC (test agent AUC divided by VX-809 AUC)” value in experiment [2] is reported as “A (a TECC value less than 3 is marked “A”)”.
On to `CC(Cc1cccc(C2(C)CCCCC(C)(C)N(C)C(=O)OCc3c(c(F)cc4[nH]ccc34)Oc3ccc(F)c(c3)-c3nc2nn3C)c1)C(=O)O` (stereo not shown) [Compound 103, 3-[3-(23,29-difluoro-3,6,11,11,12-pentamethyl-13-oxo-14,25-dioxa-3,4,12,20,31-pentazapentacyclo[24.3.1.12,5.016,24.017,21]hentriaconta-1(30),2(31),4,16,18,21,23,26,28-nonaen-6-yl)phenyl]-2-methyl-propanoic acid], for which, in experiment [1], the “DSLS (ΔTagg)” value is “C (a value greater than 10 °C and less than or equal to 25 °C is marked “C”)”. For the same compound, the “TECC (test agent AUC divided by VX-809 AUC)” value in experiment [2] is “A (a TECC value less than 3 is marked “A”)”.
As to `CNC(=O)CCc1cccc(C2(C)CCCC(C)(C)CN(C)C(=O)CCc3c(c(F)cc4[nH]ccc34)Oc3ccc(F)c(c3)-c3ncc2[nH]3)c1` (single isomer, unassigned) [Compound 53B, 3-[3-(23,29-difluoro-6,10,10,12-tetramethyl-13-oxo-25-oxa-3,12,20,31-tetrazapentacyclo-[24.3.1.12,5.016,24.017,21]hentriaconta-1(30),2,4,16,18,21,23,26,28-nonaen-6-yl)phenyl]-N-methyl-propanamide], in experiment [1], the “DSLS (ΔTagg)” value was “B (a value above 5 °C and less than or equal to 10 °C is marked “B”)”. Further, the “TECC (test agent AUC divided by VX-809 AUC)” value in experiment [2] is “A (a TECC value less than 3 is marked “A”)”.
For the compound `Cn1nc2nc1-c1cc(ccc1F)Oc1c(F)cc3[nH]ccc3c1COC(=O)NC(C)(C)CCCC2(C)c1cccc(CCC(=O)O)c1` (single isomer, unassigned) [Compound 99B, 3-[3-(22,28-difluoro-3,6,10,10-tetramethyl-12-oxo-13,24-dioxa-3,4,11,19,30-pentazapentacyclo-[23.3.1.12,5.015,23.016,20]-triaconta-1(29),2(30),4,15,17,20,22,25,27-nonaen-6-yl)phenyl]propanoic acid], in experiment [1], the “DSLS (ΔTagg)” value is “A (an ΔTagg value less than or equal to 5 °C is marked “A”)”. In addition, in experiment [2], the “TECC (test agent AUC divided by VX-809 AUC)” value was “B (a value between 3 and 6 is marked “B”)”.
Take `CC1(c2cccc(CCC(=O)O)c2)CCCCCC(=O)NCC(=O)Cc2c(c(F)cc3[nH]ccc23)Oc2ccc(F)c(c2)-c2ncc1[nH]2` (stereo not shown) [Compound 111, 3-[3-(24,30-Difluoro-6-methyl-12,15-dioxo-26-oxa-3,13,21,32-tetrazapentacyclo[25.3.1.12,5.017,25.018,22]dotriaconta-1(31),2,4,17,19,22,24,27,29-nonaen-6-yl)phenyl]propanoic acid]: the “DSLS (ΔTagg)” value in experiment [1] is “C (a value greater than 10 °C and less than or equal to 25 °C is marked “C”)”. In addition, the “TECC (test agent AUC divided by VX-809 AUC)” value in experiment [2] was “C (a value between 6 and 20 is marked “C”)”.
`CN1CC(C)(C)CCCC(C)(c2ccccc2)c2cnc([nH]2)-c2cc(ccc2F)Oc2c(F)c(F)c3[nH]ccc3c2CCC1=O` (stereo not shown) [Compound 71, 22,23,29-Trifluoro-6,10,10,12-tetramethyl-6-phenyl-25-oxa-3,12,20,31-tetrazapentacyclo[24.3.1.12,5.016,24.017,21]hentriaconta-1(30),2,4,16,18,21,23,26,28-nonaen-13-one]: the “DSLS (ΔTagg)” value in experiment [1] was “A (an ΔTagg value less than or equal to 5 °C is marked “A”)”. Also, the “TECC (test agent AUC divided by VX-809 AUC)” value in experiment [2] is listed as “A (a TECC value less than 3 is marked “A”)”.
On to `CC1(C)CCCC(c2cccc(CCC(=O)O)c2)n2ccc(n2)-c2cc(ccc2F)Oc2c(F)cc3[nH]ccc3c2CCOC(=O)N1` (single isomer, unassigned) [Compound 95B, 3-[3-(23,29-difluoro-10,10-dimethyl-12-oxo-13,25-dioxa-5,11,20,31-tetrazapentacyclo-[24.3.1.12,5.016,24.017,21]hentriaconta-1(30),2(31),3,16(24),17(21),18,22,26,28-nonaen-6-yl)phenyl]propanoic acid], for which, in experiment [1], the “DSLS (ΔTagg)” value was “B (a value above 5 °C and less than or equal to 10 °C is marked “B”)”. Also, the “TECC (test agent AUC divided by VX-809 AUC)” value in experiment [2] is “B (a value between 3 and 6 is marked “B”)”.
As for `Cn1nc2nc1-c1cc(ccc1F)Oc1c(F)cc3[nH]ccc3c1CCNC(=O)OCC(C)(C)CC[C@@]2(C)c1cccc(CCC(=O)O)c1` (single isomer, unassigned) [Compound 98A], in experiment [1], the “DSLS (ΔTagg)” value is “C (a value greater than 10 °C and less than or equal to 25 °C is marked “C”)”. Also, in experiment [2], the “TECC (test agent AUC divided by VX-809 AUC)” value was “C (a value between 6 and 20 is marked “C”)”.
Turning to `CN1CCCc2c(c(F)cc3[nH]ccc23)Oc2ccc(F)c(c2)-c2ncc([nH]2)C(C)(c2cccc(CCC(=O)O)c2)CCCOC1=O` (stereo not shown) [Compound 84, 3-[3-(23,29-Difluoro-6,12-dimethyl-11-oxo-10,25-dioxa-3,12,20,31-tetrazapentacyclo[24.3.1.12,5.016,24.017,21]hentriaconta-1(30),2,4,16(24),17(21),18,22,26,28-nonaen-6-yl)phenyl]propanoic acid], in experiment [1], the “DSLS (ΔTagg)” value was “C (a value greater than 10 °C and less than or equal to 25 °C is marked “C”)”. In addition, the “TECC (test agent AUC divided by VX-809 AUC)” value in experiment [2] was “B (a value between 3 and 6 is marked “B”)”.
